# Residues, ends and D or L forms follow the SMILES beside them. *: point of attachment. Cbz = O=C(OCc1ccccc1)*; CH2F = FC*
# Experiments:
# [1] = test system: MAPKi-R NRAS-mutant melanoma cells; assay type: cell-based; details: for effect on FNB/DHA-induced cell death: M93-047, GSH 2 mM, zVAD 20 μM, Kira6 0.2 μM pre-treatment; for effect on cell death induced by S6K2 depletion (S6K2 shRNA): M93-047 cells transduced with S6K2 shRNA; for effect on S6K2i (CD02)-induced cell death: MAPKi-R cells treated with CD02
# Description: Floating and attached cells were harvested, washed and stained with PSVue 643/PI or Annexin V-FITC/PI. Annexin V staining was performed as described previously (45), with 15 min Annexin V incubation. For PSVue/PI staining, cells were incubated in 3 μM PSVue 643/TES for 10 min at RT, washed in TES buffer and resuspended in PI (5 μg/mL)/TES for 15 min at RT. Cell death (Annexin V^+/PSVue^+ or PI^+) was quantified by FACS (LSRII 18 color analyzer, BD Biosciences) and analyzed using FlowJo software v.10.7.2.
# [2] = test system: pS6 (S240/244) in MAPKi-S cells; experiment: Phosphorylation of S6K/S6 in MAPKi-S cells (immunoblotting, RPPA, flow cytometry); assay type: cell-based, human
# Description: (§1) Cells were lysed with RIPA buffer (50 mM Tris-HCl, pH 7.4, 150 mM NaCl, 1% NP-40, 0.5% sodium deoxycholate, 1 mM EDTA, 2.5 mM sodium pyrophosphate, 0.05% or 0.1% SDS) supplemented with sodium vanadate (0.2 mM) and protease inhibitor cocktail (Sigma-Aldrich #11697498001). Immunoblotting was performed as previously described (Echevarria-Vargas et al., 2018). Immunoblots were imaged with an Odyssey Infrared Imaging System (LI-COR Biosciences).
# (§2) Flow cytometry. Cells were fixed in 90% ice cold EtOH/PBS and stored at −20° C. Cells were washed twice with PBS followed by 1 h incubation at RT with incubation buffer (1% BSA/PBS) containing primary antibodies (1:500 pS6 S240/244 Cell Signaling Technology #5364; 1:1000 HA Sigma-Aldrich #H9658). Samples were washed once (1×PBS), incubated for 30 min at RT with incubation buffer containing secondary antibodies diluted to 1:500 (goat anti-mouse Alexa Fluor 488 ThermoFisher #A11029; goat anti-rabbit Alexa Fluor 647 #A21244), washed (1×PBS) and resuspended in incubation buffer for analysis by flow cytometry (BD LSRII 14-color flow cytometer analyser; Alexa Fluor 488 and APC filter sets). Data analyses were performed using FlowJo software to calculate pS6 positivity. For 4-HNE staining, cells were fixed with 4% paraformaldehyde for 15 min, washed with PBS and stored at 4° C. […]
# [3] = test system: pS6 (S240/244) in MAPKi-R cells; experiment: Phosphorylation of S6K/S6 in MAPKi-R cells (immunoblotting, RPPA, flow cytometry); assay type: cell-based, human
# Description: as §1, §2
# [4] = test system: spliced XBP-1 and PPARα in M93-047 cells; experiment: Spliced XBP-1 and PPARα levels by qRT-PCR / Western blotting; assay type: cell-based, human
# Description: as §1
# Cell pellets were homogenized using QIAshredder (QIagen #79656) and RNA extracted with PureLink RNA mini kit (Thermo Fisher Scientific, #12183018A). DNA was removed by on-column PureLink DNase treatment (Thermo Fisher Scientific, #12185010). First-strand cDNA was synthesized using Maxima cDNA kit (Thermo Scientific™ #K1642). Real time qPCR was performed using SYBR green PCR Master Mix (Applied Biosystems #4385612). Tumor samples for qRT-PCR were preserved in RNAlater solution (Invitrogen #AM7020).
# [5] = test system: M93047 and WM3623 cell lines; experiment: Preliminary in vitro studies against MAPKi-R cell lines; assay type: cell-based, human; details: at lower concentrations
Structure (SMILES),effect on FNB/DHA-induced cell death [1],effect on cell death induced by S6K2 depletion (S6K2 shRNA) [1],effect on S6K2i (CD02)-induced cell death [1],other results
"N[C@@H](CCC(=O)N[C@@H](CS)C(=O)NCC(=O)O)C(=O)O [GSH, glutathione]",attenuated FNB/DHA-induced cell death,also attenuated cell death,attenuate S6K2i-induced cell death,–
"COc1ncc(-c2ccc3nccc(-c4ccnnc4)c3c2)cc1NS(=O)(=O)c1ccc(F)cc1F [GSK458, GSK2126458]",–,–,–,phosphorylation of S6K / S6 [2]: decreased phosphorylation of S6; phosphorylation of S6K / S6 [3]: effectively suppressed pS6
CC(C)(C)c1nc(-c2ccc(NC(=O)Nc3cccc(C(F)(F)F)c3)c3ccccc23)c2c(N)nccn12 [Kira6],attenuated FNB/DHA-induced cell death,partially attenuated cell death,attenuate S6K2i-induced cell death,"upregulation of XBP-1 splicing and PPARα expression caused by S6K2 knockdown ([4]; M93-047, S6K2 shRNA): suppressed; activation of XBP-1 by FNB/DHA ([4]; cotreatment with 0.2 μM Kira6): suppressed the activation of XBP-1"
Cn1cc(-c2ccc(F)c(C(F)(F)F)c2)nc1C1CCN(c2ncnc3[nH]ncc23)CC1 [LY2584702],–,–,–,"cytotoxicity with ectopically expressed activated S6K1 ([1]; M93-047 with S6K1^T389E, 1, 5, 10 μM, 48 hours): enhanced LY4702 cytotoxicity"
O=C(CCl)Nc1ccc(-c2cc(O)cc3sc(=O)oc23)cc1 [MM-113],–,–,–,potency compared with RT12 [5]: better potency at lower concentrations
CC(=O)N[C@@H](CS)C(=O)O [NAC],–,protects M93047 cells from S6K2sh induced cell death,rescues S6K2i-induced cell death,–
"O=C(Nc1ccc2[nH]nc(-c3ccncc3)c2c1)[C@@H]1CCN(CC(=O)N2CCN(c3ccc(-c4ncccn4)cc3)CC2)C1 [SCH984, SCH772984]",–,–,–,phosphorylation of S6K / S6 [2]: decreased phosphorylation of S6; phosphorylation of S6K / S6 [3]: no effect on phosphorylation of S6
CCOC(=O)c1ccc(NC2CCCCC2)c(N)c1 [ferrostatin-1],–,did not attenuate cell death,–,–
"COC(=O)C[C@H](NC(=O)[C@H](C)NC(=O)[C@@H](NC(=O)OCc1ccccc1)C(C)C)C(=O)CF [zVAD, zVAD(OMe)-FMK] (Cbz-Val-Ala-Asp(OMe)-CH2F)",attenuated FNB/DHA-induced cell death,also attenuated cell death,attenuate S6K2i-induced cell death,–
